Assay results taken from USRE48636E1, “Decoy peptides inhibiting protein phosphatase 1-mediated dephosphorylation of phospholamban” (BethphaGen Inc., priority 2012, dated 2021).
Entries after “also recorded” stand apart in the source; their conditions may differ. No end group written: not given here.

Tests used:
[1] = tested on: adult cardiomyocytes; assay: Intracellular Ca2+ transient measurement (Fura2-AM) in isolated adult cardiomyocytes; format: cell-based, rat; settings: for Effect on PMA-induced defects in intracellular Ca2+ handling (Ca2+ transient amplitude, time constant of decay): 1 μM peptide 45 min, then 1 μM PMA 15 min, Fura2/AM
Description: (§1) FIGS. 2a-2d represent the increase in cardiac contractility by the decoy peptides. Isolated adult cardiomyocytes were treated with 1 μM of indicated peptides for 45 min, and then with 1 μM of PMA for 15 min. Contractile parameters were then determined. FIGS. 2a and 2b show contractile parameters. Peak cell shortening, percentage of shortened cell length; −dL/dt, maximal rate of cell shortening; +dL/dt, maximal rate of cell relengthening. FIGS. 2c and 2d show average parameters of the transient Ca^2+ properties determined with Fura2/AM. Baseline [Ca^2+]i, baseline intracellular Ca^2+ levels; Δ[Ca^2+]i (340/380), increase in intracellular Ca^2+ levels in response to electric Stimuli; τ(ms), Ca^2+ transient decay rate. Approximately 500 cells were chosen for the contractility and Ca^2+ transient measurements were taken from eight individual hearts. #, P<0.05; *, P<0.01 compared to control; error bars represent SD.
(§2) Ventricular myocytes were isolated from SD rat hearts as previously described with minor modifications. Male rats of 8-12 weeks of age (250-320 g) were used. In brief, rats were anesthetized by the inhalation of isofluran (0.5%) for 5 min. The heart was quickly removed from the chest and the aorta was retrogradely perfused at 37° C. for 3 min with calcium-free Tyrode buffer (137 mM NaCl, 5.4 mM KCl, 1 mM MgCl2, 10 mM glucose, 10 mM HEPES [pH 7.4], 10 mM 2, 3-butanedione monoxime, and 5 mM taurine) gassed with 100% O2. The enzymatic digestion was then initiated by adding collagenase type B (0.35 U/ml; Roche) and hyaluronidase (0.1 mg/ml; Worthington) to the perfusion solution. When the heart became swollen after 10 min of digestion, the left ventricle was quickly removed, cut into several chunks, and further digested in a shaker (60-70 rpm) for 10 min at 37° C. in the same enzyme solution. The supernatant containing the dispersed myocytes was then filtered through a cell strainer (100 μm in pore size, BD Falcon) and gently centrifuged at 500 rpm for 1 min. Extracellular Ca^2+ was incrementally added back to a concentration of 1.25 mM over a span of 30 min to avoid the Ca^2+ paradox. This procedure usually yielded ≥80% viable rod-shaped ventricular myocytes with clear sarcomere striations. Myocytes with obvious sarcolemmal blebs or spontaneous contractions were discarded.
(§3) The mechanical properties of ventricular myocytes were assessed using a video-based edge detection system (IonOptix), as previously described. In brief, laminin-coated coverslips with attached cells were placed in a chamber mounted on the stage of an inverted microscope (Nikon Eclipse TE-100F) and perfused (about 1 ml/min at 37° C.) with Tyrode buffer (137 mM NaCl, 5.4 mM KCl, 1 mM CaCl2, 1 mM MgCl2, 10 mM glucose, and 10 mM HEPES [pH 7.4]). The cells were field-stimulated at a frequency of 3 Hz (30 V) using a STIM-AT stimulator/thermostat placed on a HLD-CS culture chamber/stim holder (Cell Micro Controls). […] Changes in cell length during shortening and relengthening were captured and analyzed using soft edge software (IonOptix). The cardiomyocytes were loaded with 0.5 μM Fura2-AM (Molecular Probes), a Ca^2+-sensitive indicator, for 15 min at 37° C. Fluorescence emissions were recorded simultaneously with the contractility measurements using Myocyte calcium and contractility recording system (IonOptix). Cardiomyocytes were exposed to light emitted by a 75 W halogen lamp through either a 340 or 380 nm filter while being field-stimulated as described above. Fluorescence emissions were detected between 480 and 520 nm by a photomultiplier tube after initial illumination at 340 nm for 0.5 ms and then at 380 nm for the duration of the recording protocol. The 340 nm excitation scan was then repeated at the end of the protocol, and qualitative changes in the intracellular Ca^2+ concentration were inferred from the ratio of the Fura fluorescence intensity at both wavelengths.

[2] = tested on: adult cardiomyocytes; assay: Cell contractility of isolated adult cardiomyocytes (video-based edge detection); parameters: species or system rat; settings: for Effect on PMA-induced reduction in contractility (peak shortening, rates of contraction and relaxation): 1 μM peptide 45 min, then 1 μM PMA 15 min
Description: as §1, §2, §3

[3] = tested on: PP1-mediated dephosphorylation of PLB; assay: PLB phosphorylation (Western blot) in PMA-treated isolated adult cardiomyocytes; format: cell-based, rat; settings: 1 μM peptide 45 min, then 1 μM PMA 15 min; for Blocking of PMA-induced dephosphorylation of PLB at Ser16 and Thr17 (elevating the phosphorylation levels of PLB): Western blot
Description: FIGS. 1c-1d represent the increase in PLB phosphorylation by the decoy peptides (FIG. 1c) and shortened decoy peptides (FIG. 1d). Isolated adult cardiomyocytes were treated with 1 μM of indicated peptides for 45 min, and then with 1 μM of PMA for 15 min. Western blots of cell lysates were then probed with antibodies against phospho-PLB (S^16), phospho-PLB (T^17), total PLB, or GAPDH. The decoy peptides contain the following sequences: ψPLB-SE, RAETIEMPQ (SEQ ID NO:1); ψPLB-SD, RADTIEMPQ (SEQ ID NO:3); ψPLB-TE, RASEIEMPQ (SEQ ID NO:2). The shortened decoy peptides contain the following sequences: ψPLB-8-mer, AETIEMPQ (SEQ ID NO:4); ψPLB-7-mer, RAETIEM (SEQ ID NO:5); ψPLB-6-mer, RAETIE (SEQ ID NO:6); ψPLB-5-mer: RAETI (SEQ ID NO:7). PMA, phorbol 12-myristate 13-acetate.
The decoy peptides were derived from the PLB protein sequence (SEQ ID NO:10) surrounding the phosphorylation sites Ser^16 and Thr^17: RAS^16T^17IEMPQ. The peptides were conjugated via a cystein-cystein bond at their N termini to the cell penetrating peptide TAT (YGRKKRRQRRR (SEQ ID NO:11)) to facilitate uptake into cells. The peptides used in this invention were as follows: ψPLB-wt, RASTIEMPQ (SEQ ID NO:8); ψPLB-SE, RAETIEMPQ (SEQ ID NO:1); ψPLB-TE, RASEIEMPQ (SEQ ID NO:2); ψPLB-SD, RADTIEMPQ (SEQ ID NO:3). In addition, shortened ψPLB-SE peptides were also tested: 8-mer, AETIEMPQ (SEQ ID NO:4); 7-mer, RAETIEM (SEQ ID NO:5); 6-mer, RAETIE (SEQ ID NO:6); 5-mer, RAETI (SEQ ID NO:7). All of the peptides were synthesized and modified by AnyGen (Gwangju, Korea) and dissolved in distilled water to a stock concentration of 1 mM. Peptides were >95% pure. The decoy peptides were treated for 1 h at a final concentration of 1 μM.
as §2
(§4) Heart lysates (50 μg) in SDS sample buffer were run on a SDS-PAGE gel and then transferred to a PVDF membrane (Bio-Rad). The membrane was blocked with a 5% skim milk solution and then incubated overnight with antibodies directed against PLB (Affinity Bioreagents), phospho-PLB (Ser^16, Cell Signaling), phospho-PLB (Thr^17, Badrilla), SERCA2a (Santa Cruz), Caspase 3 (Cell Signaling), or GAPDH (Santa Cruz). The membranes were then incubated with a secondary antibody conjugated to horseradish peroxidase (Jackson Immuno Research) and developed using the Western Lighting chemiluminescence reagent (Perkin Elmer).

[4] = tested on: Caspase 3; assay: Western blot of heart lysates after ischemia/reperfusion: Caspase 3; parameters: species or system rat; settings: heart lysates at the end of reperfusion with 1 μM peptide
Description: (§5) FIGS. 3a-3b represent the postischemic cardiac performance ex vivo. […] The changes in left ventricular developed pressure (LVDP) are shown. n=4. *, P<0.01 compared to TAT; error bars represent SEM. […] Western blots probed with antibodies against phospho-PLB (S^16), phosphor-PLB (T^17), total PLB, Caspase 3, or GAPDH are shown.
as §4
(§6) Rats were anesthetized by inhalation of isofluran (0.5%) for 5 min. […] Heart rate, left ventricular developed pressure (LVDP), and the first derivatives of LV pressure (LV +dP/dt max and LV −dP/dt max) were all recorded using PowerLab Chart Systems (AD Instruments). The balloon volume was adjusted in 250-300 μl to result in a measured end diastolic pressure in the range of 6-10 mmHg. […]

[5] = tested on: PLB; assay: Western blot of heart lysates after ischemia/reperfusion: phospho-PLB; parameters: species or system rat; settings: heart lysates at the end of reperfusion with 1 μM peptide
Description: as §5, §4, §6

[6] = tested on: rat hearts; assay: Langendorff isolated perfused heart, ischemia/reperfusion ex vivo, left ventricular developed pressure; settings: 20 min no-flow ischemia, 30 min reperfusion with 1 μM peptide
Description: as §5
Rats were anesthetized by inhalation of isofluran (0.5%) for 5 min. The heart was quickly removed and placed in cold oxygenated Tyrode solution (137 mM NaCl, 5.4 mM KCl, 1 mM MgCl2, 10 mM glucose, 1 mM CaCl2, 10 mM HEPES [pH 7.4], 100% O2). The aorta was cannulated and perfused by the Langendorff method with oxygenated Tyrode solution at constant pressure (65 mmHg, temperature 37±0.2° C.). A latex water-filled balloon was inserted into the left ventricular chamber and connected to a pressure transducer (AD Instruments) for continuous measurement of heart performance. Heart rate, left ventricular developed pressure (LVDP), and the first derivatives of LV pressure (LV +dP/dt max and LV −dP/dt max) were all recorded using PowerLab Chart Systems (AD Instruments). The balloon volume was adjusted in 250-300 μl to result in a measured end diastolic pressure in the range of 6-10 mmHg. After a 30 min stabilization period, the hearts were subjected to 20 min of no-flow to induce global ischemia, followed by 30 min of reperfusion. […]

[7] = 1 μM PMA 15 min, no decoy peptide

Row | Compound | Effect on PMA-induced defects in intracellular Ca2+ handling (Ca2+ transient amplitude, time constant of decay) [1] | Effect on PMA-induced reduction in contractility (peak shortening, rates of contraction and relaxation) [2] | Blocking of PMA-induced dephosphorylation of PLB at Ser16 and Thr17 (elevating the phosphorylation levels of PLB) [3] | also measured
1 | RASTIEMPQ (not fully specified (N-terminus); also: TAT coupled via disulfide) [ψPLB-wt] | negligible or marginal | no or only marginal effects |  | 
2 | RAETIE [ψPLB-6-mer] | as effective as ψPLB-SE | as effective as ψPLB-SE | only ψPLB-5-mer was ineffective | 
3 | RAETI [ψPLB-5-mer] |  |  | ineffective | 
4 | RAETIEM [ψPLB-7-mer] |  |  | only ψPLB-5-mer was ineffective | 
5 | RASEIEMPQ (not fully specified (N-terminus); also: TAT coupled) [ψPLB-TE] | negligible or marginal | no or only marginal effects | blocked dephosphorylation but was less effective than ψPLB-SE; also recorded: not as effective as ψPLB-SE | 
6 | RADTIEMPQ (not fully specified (N-terminus); also: TAT coupled) [ψPLB-SD] | as effective as ψPLB-SE | as effective as ψPLB-SE | as effective as ψPLB-SE | 
7 | RAETIEMPQ (not fully specified (N-terminus); also: TAT coupled) [ψPLB-SE] | completely reversed | completely prevented | significantly blocked; also recorded: prevented dephosphorylation | I/R-induced activation of cell death-related Caspase 3 [4]: completely reversed; Phosphorylation of PLB at Ser16 after ischemia/reperfusion [5]: significantly recovered; Phosphorylation levels of PLB after treatment compared with basal levels [3]: slightly but significantly higher than the basal levels; Left ventricular developed pressure after ischemia/reperfusion ([6]; I/R alone 37-44 mmHg, pre-ischemia 80-100 mmHg): 73-78 mmHg
8 | AETIEMPQ (not fully specified (N-terminus); also: TAT coupled) [ψPLB-8-mer] |  |  | only ψPLB-5-mer was ineffective | 
9 | CCCCCCCCCCCCCC(=O)O[C@@H]1[C@@H](C)[C@@]2(O)[C@@H](C=C(CO)C[C@]3(O)C(=O)C(C)=C[C@@H]23)[C@@H]2C(C)(C)[C@]12OC(C)=O [PMA, phorbol 12-myristate 13-acetate, reference compound] |  |  |  | Ca2+ transient amplitude [1, 7]: significant reduction; Time constant of the Ca2+ transient decay [1, 7]: significant increase; Contractility (peak shortening, rates of contraction and relaxation) [2, 7]: significantly reduced
10 | YGRKKRRQRRR (Human immunodeficiency virus) [TAT, reference compound] |  |  |  | Effect on left ventricular developed pressure after ischemia/reperfusion [6]: no effects
